Holding throughout (assay): Bacterial Assay: Determination of Antibacterial Activity (MIC, broth microdilution or agar dilution)
Holding throughout (type): cell-based
Background: Dilution methods test growth across graded concentrations, often in twofold steps.

The test system of test [1] is Clostridium difficile (Isolate ID 027-01). The conditions noted are these: Clostridioides difficile, 48 h, read-out: MIC (μg/mL) C. difficile (027-01). The procedure, abridged:
(§1)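 MICs were set by CLSI broth microdilution or agar dilution for anaerobes, read visually after 48 hours at 37° C. under anaerobic gas packs. Medium was reinforced clostridial medium with 0.1% defibrinated horse blood; values are binned as A ≦1.01, B >1.0-4.0, C >4.0-16 μg/mL.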

The subject of test [2] is Clostridium difficile (Isolate ID BI-9). The conditions noted are these: Clostridioides difficile, 48 h, read-out: MIC (μg/mL) C. difficile (B-I9). Summed up: as §1
The test system of test [3] is Clostridium difficile (Isolate ID ATCC 9689). The conditions noted are these: Clostridioides difficile, ATCC9689, 48 h, read-out: C. difficile MIC Activity Range. The procedure, abridged: as §1

The results in this text go back to US20170305943A1, “COMPOUNDS FOR THE TREATMENT OF BACTERIAL INFECTIONS” (priority 2014, published 2017).

Converted amounts (≈) assume the structure as drawn. Some results are limits rather than exact numbers.

For `NC(=O)c1c(F)ccc(O[C@H](CO)c2nc(-c3ccc(C(F)(F)F)cc3)c(Br)o2)c1F` (single isomer, unassigned) [Compound 47], the MIC in test [1] was 0.12 µg/mL (≈ 0.237 µM); in test [2], 0.12 µg/mL (≈ 0.237 µM); in test [3], less than 1.01 µg/mL. Take `C#CCCCCCCCCCOc1ccc(F)c(C(N)=O)c1F` [Compound 7, 2,6-difluoro-3-(undec-10-yn-1-yloxy)benzamide]: the MIC was 0.12 µg/mL (≈ 0.371 µM) in test [1], 0.12 µg/mL (≈ 0.371 µM) in test [2] and less than 1.01 µg/mL in test [3]. As for `CCCCCCCCCOc1cccc(C(N)=O)c1F` [Compound 8, 2-fluoro-3-(nonyloxy)benzamide], the results for the MIC in test [1], in test [2] and in test [3] were 0.5 µg/mL (≈ 1.78 µM), 0.25 µg/mL (≈ 0.889 µM) and less than 1.01 µg/mL, respectively. Consider `C#CCCCCCCCCCOc1cccc(C(N)=O)c1F` [Compound 9, 2-fluoro-3-(undec-10-yn-1-yloxy)benzamide], for which the figures for the MIC in test [1], in test [2] and in test [3] were 1 µg/mL (≈ 3.27 µM), 0.5 µg/mL (≈ 1.64 µM) and less than 1.01 µg/mL, respectively.

For `COc1ccc(-c2csc(COc3ccc(F)c(C(N)=O)c3F)n2)cc1` [Compound 10, 2,6-difluoro-3-{[4-(4-methoxyphenyl)-1,3-thiazol-2-yl]methoxy}benzamide], the MIC is 4 µg/mL (≈ 10.6 µM) in test [1], 2 µg/mL (≈ 5.31 µM) in test [2] and 1 to 4 µg/mL (≈ 2.66 to 10.6 µM) in test [3].

Take `NC(=O)c1c(F)ccc(OCc2nc(-c3ccc(Cl)cc3)cs2)c1F` [Compound 11, 3-{[4-(4-chlorophenyl)-1,3-thiazol-2-yl]methoxy}-2,6-difluorobenzamide]: the MIC in test [1] is 0.25 µg/mL (≈ 0.657 µM); in test [2], 0.25 µg/mL (≈ 0.657 µM); in test [3], less than 1.01 µg/mL. In the case of `NC(=O)c1c(F)ccc(OCc2nc(-c3ccc(Cl)cc3)c(Br)s2)c1F` [Compound 12, 3-{[5-bromo-4-(4-chlorophenyl)-1,3-thiazol-2-yl]methoxy}-2,6-difluorobenzamide], the MIC in test [1] was 1 µg/mL (≈ 2.18 µM); in test [2] it was 1 µg/mL (≈ 2.18 µM); in test [3], less than 1.01 µg/mL. As to `NC(=O)c1c(F)ccc(OCc2nc(-c3ccc(C(F)(F)F)cc3)cs2)c1F` [Compound 16, 2,6-difluoro-3-({4-[4-(trifluoromethyl)phenyl]-1,3-thiazol-2-yl}methoxy)benzamide], the values for the MIC in test [1], in test [2] and in test [3] were 0.5 µg/mL (≈ 1.21 µM), 0.5 µg/mL (≈ 1.21 µM) and less than 1.01 µg/mL, respectively. Turning to `NC(=O)c1c(F)ccc(OCc2nc(-c3ccc(OC(F)(F)F)cc3)cs2)c1F` [Compound 17, 2,6-difluoro-3-({4-[4-(trifluoromethoxy)phenyl]-1,3-thiazol-2-yl}methoxy)benzamide], the MIC was 0.185 µg/mL (≈ 0.43 µM) in test [1], 0.25 µg/mL (≈ 0.581 µM) in test [2] and less than 1.01 µg/mL in test [3].

As for `NC(=O)c1c(F)ccc(OCc2nc(-c3ccc(Cl)cc3)ns2)c1F` [Compound 19, 3-{[3-(4-chlorophenyl)-1,2,4-thiadiazol-5-yl]methoxy}-2,6-difluorobenzamide], the values for the MIC in test [1], in test [2] and in test [3] were 1 µg/mL (≈ 2.62 µM), 2 µg/mL (≈ 5.24 µM) and less than 1.01 µg/mL, respectively. Taken in the same sequence, the figures for `NC(=O)c1c(F)ccc(OCc2nc(-c3ccc(OC(F)(F)F)cc3)ns2)c1F` [Compound 20, 2,6-difluoro-3-({3[4-(trifluoromethoxy)phenyl]-1,2,4-thiadiazol-5-yl}methoxy)benzamide] were 0.06 µg/mL (≈ 0.139 µM), 0.06 µg/mL (≈ 0.139 µM) and less than 1.01 µg/mL. In the case of `NC(=O)c1c(F)ccc(OCc2cc(-c3ccc(Cl)cc3)cs2)c1F` [Compound 188, 3-{[4-(4-chlorophenyl)thiophen-2-yl]methoxy}-2,6-difluorobenzamide], the MIC in test [3] is less than 1.01 µg/mL.

In the case of `CCOC(=O)c1cc(Cl)ccc1-c1csc(COc2ccc(F)c(C(N)=O)c2F)n1` [Compound 190, ethyl 2-{2-[(3-carbamoyl-2,4-difluorophenoxy)methyl]-1,3-thiazol-4-yl}-5-chlorobenzoate], the MIC in test [3] is 4 to 16 µg/mL (≈ 8.83 to 35.3 µM). For the compound `COc1ccc(-c2nc(COc3ccc(F)c(C(N)=O)c3F)sc2-c2cccc(Cl)c2O)cc1` [Compound 191, 3-{[5-(3-chloro-2-hydroxyphenyl)-4-(4-methoxyphenyl)-1,3-thiazol-2-yl]methoxy}-2,6-difluorobenzamide], in test [3], the MIC was in the range of 4 to 16 µg/mL (≈ 7.95 to 31.8 µM).

`COc1cc(-c2csc(COc3ccc(F)c(C(N)=O)c3F)n2)ccc1Cl` [Compound 195, 3-{[4-(4-chloro-3-methoxyphenyl)-1,3-thiazol-2-yl]methoxy}-2,6-difluorobenzamide]: the MIC in test [3] fell in the range of 4 to 16 µg/mL (≈ 9.74 to 38.9 µM). Take `NC(=O)c1c(F)ccc(OCc2nc(-c3ccc(Cl)c(O)c3)cs2)c1F` [Compound 196, 3-{[4-(4-chloro-3-hydroxyphenyl)-1,3-thiazol-2-yl]methoxy}-2,6-difluorobenzamide]: the MIC in test [3] fell in the range of 1 to 4 µg/mL (≈ 2.52 to 10.1 µM).

As for `COc1ccc(C#Cc2csc(COc3ccc(F)c(C(N)=O)c3F)n2)cc1` [Compound 197, 2,6-difluoro-3-({4-[(4-methoxyphenyl)ethynyl]-1,3-thiazol-2-yl}methoxy)benzamide], the MIC in test [3] is less than 1.01 µg/mL. On the same count and under the same terms, the value for `NC(=O)c1c(F)ccc(OCc2nc(CCc3cccc(Cl)c3)cs2)c1F` [Compound 199, 3-({4-[2-(3-chlorophenyl)ethyl]-1,3-thiazol-2-yl}methoxy)-2,6-difluorobenzamide] was less than 1.01 µg/mL; that for `Cc1nn(-c2ccc(Cl)cc2)nc1COc1ccc(F)c(C(N)=O)c1F` [Compound 200, 3-{[2-(4-chlorophenyl)-5-methyl-2H-1,2,3-triazol-4-yl]methoxy}-2,6-difluorobenzamide] was 1 to 4 µg/mL (≈ 2.64 to 10.6 µM); that for `NC(=O)c1c(F)ccc(OCc2nc(-c3ccc(Cl)nc3)cs2)c1F` [Compound 201, 3-{[4-(6-chloropyridin-3-yl)-1,3-thiazol-2-yl]methoxy}-2,6-difluorobenzamide] was 1 to 4 µg/mL (≈ 2.62 to 10.5 µM).

Consider `NC(=O)c1c(F)ccc(OCc2cnn(-c3ccc(Cl)cc3)n2)c1F` [Compound 202, 3-{[2-(4-chlorophenyl)-2H-1,2,3-triazol-4-yl]methoxy}-2,6-difluorobenzamide], for which the MIC in test [3] is 1 to 4 µg/mL (≈ 2.74 to 11 µM). Still for that read-out and setting: the value for `COc1ccc(-c2nc(COc3ccc(F)c(C(N)=O)c3F)oc2-c2cccc(Cl)c2O)cc1` [Compound 204, 3-{[5-(3-chloro-2-hydroxyphenyl)-4-(4-methoxyphenyl)-1,3-oxazol-2-yl]methoxy}-2,6-difluorobenzamide] was 4 to 16 µg/mL (≈ 8.22 to 32.9 µM); that for `N#Cc1cc(Cl)ccc1-c1csc(COc2ccc(F)c(C(N)=O)c2F)n1` [Compound 206, 3-{[4-(4-chloro-2-cyanophenyl)-1,3-thiazol-2-yl]methoxy}-2,6-difluorobenzamide] was less than 1.01 µg/mL.

For `NC(=O)c1c(F)ccc(OCc2nc(-c3ccc(Cl)cc3)c(-c3cccc(O)c3)o2)c1F` [Compound 210, 3-{[4-(4-chlorophenyl)-5-(3-hydroxyphenyl)-1,3-oxazol-2-yl]methoxy}-2,6-difluorobenzamide], in test [3], the MIC lay within 4 to 16 µg/mL (≈ 8.76 to 35 µM). As to `NC(=O)c1c(F)ccc(OCc2nc(-c3ccc(C(F)(F)F)cc3)c(Br)s2)c1F` [Compound 211, 3-({5-bromo-4-[4-(trifluoromethyl)phenyl]-1,3-thiazol-2-yl}methoxy)-2,6-difluorobenzamide], the MIC in test [3] is 1 to 4 µg/mL (≈ 2.03 to 8.11 µM). Regarding `CC(Nc1ccc(F)c(C(N)=O)c1F)c1nc(-c2ccc(OC(F)(F)F)cc2)c(Br)o1` (stereo not drawn) [Compound 212, 3-[(1-{5-bromo-4-[4-(trifluoromethoxy)phenyl]-1,3-oxazol-2-yl}ethyl)amino]-2,6-difluorobenzamide], in test [3], the MIC was 1 to 4 µg/mL (≈ 1.98 to 7.9 µM).
